This is an account of results in publication PMC7082314 (Frontiers in Cellular and Infection Microbiology, 2020).

For the assay, the target named is BfpR-His6 (Francisella tularensis, UniProt A0Q7V5). The conditions noted are these: 5 uM protein (printed 'Five micrometers'), 2X SYPRO Orange; heated to 95 °C.
Sequence of BfpR-His6 (A0Q7V5 1-229): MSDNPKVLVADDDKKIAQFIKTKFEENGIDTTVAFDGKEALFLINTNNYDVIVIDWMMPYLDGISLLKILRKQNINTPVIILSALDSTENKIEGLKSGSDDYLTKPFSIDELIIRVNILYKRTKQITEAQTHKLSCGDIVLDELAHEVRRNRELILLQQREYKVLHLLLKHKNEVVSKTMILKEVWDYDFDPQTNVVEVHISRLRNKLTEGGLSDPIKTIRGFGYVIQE

Take `COc1ccc(O)c2ccccc12` [walrycin A, 4-methoxy-1-naphthol]: the thermal shift result is given as “a protein population not seen in the presence of the control compounds appears”.
